Results taken from patent US6391538B1, “Stabilization of implantable bioprosthetic tissue” (The Children's Hospital of Philadelphia, priority 2000, dated 2002).
Several values for one entry are separate records, joined by “and”; a condition that tells them apart may be missing. Equal values may be shown once.

Legend:
bovine pericardium = test: Subdermal calcification study in rats, bovine pericardium; format: in vivo; conditions: Group III: TGA second method, then treated with and stored in formalin-containing solution, 21 days, average ± standard error
Description: (§1) In a second method of cross-linking bioprosthetic tissue, separate 100 milliliter aliquots of […] TGA in 0.10 molar HEPES buffer at pH 7.4 were prepared. The following were added to individual aliquots of this solution.
(§2) The tissues and solutions were maintained at room temperature with constant shaking for up to seven days, during which time the pH of each cross-linking reaction was monitored. For selected reactions, the reaction mixture solution was replaced every 24 hours with a freshly-prepared 100 milliliter aliquot of 0.1 molar TGA in 0.10 molar HEPES buffer at pH 7.4. At selected times, a small section was removed from each tissue in each of the stabilization reaction mixtures, and the section was analyzed by differential scanning calorimetry to determine the thermal shrinkage temperature (Ts). After seven days of reaction, one group of each of the tissues was transferred to 100 milliliters of 0.05 molar phosphate buffer containing 4% (v/v) formalin and stored in this solution prior to use in subsequent experiments.
(§3) Subdermal calcification studies were performed in rats using tissues treated and stored as described above. […] Twenty-one days following implantation, the tissues were recovered and their calcium content was measured in samples taken from each tissue.

porcine aortic cusps = test: Subdermal calcification study in rats, porcine aortic cusps; format: in vivo
Description: In a first method of cross-linking bioprosthetic tissue, four separate cross-linking solutions were prepared:
1) 0.1 molar TGA in 0.05 molar HEPES buffer at pH 7.4,
2) 0.1 molar TGA in 0.05 boric acid-borax buffer at pH 9.0,
3) 0.1 molar Denacol 521™ (Nagase Chemical Co., Japan) in 0.05 molar HEPES buffer at pH 7.4, and
4) 0.05 molar HEPES buffer (pH 7.4) containing 0.6% (v/v) glutaraldehyde.
Twenty fresh porcine aortic cusps were added to separate 100 milliliter aliquots of each of the four solutions (i.e. using a total of eighty cusps). The cusps and solutions were maintained with constant shaking at room temperature for up to ten days without changing the solution. At selected times, a small section was removed from each of the cusps in each of the cross-linking reactions and analyzed by differential scanning calorimetry to determine the thermal shrinkage temperature (Ts). Cross-linking reactions were considered complete when the value of Ts remained substantially constant over time. Cusps treated in this manner were maintained in the cross-linking solution for more than 20 days prior to use in subsequent experiments. […]
Subdermal calcification studies were performed in rats using tissues treated and stored as described above. Following treatment by either of the two methods described above, the tissues were rinsed thoroughly with excess sterile saline solution immediately prior to implantation. Tissues were implanted subdermally (1 tissue sample per rat, 10 rats per treatment method). Twenty-one days following implantation, the tissues were recovered and their calcium content was measured in samples taken from each tissue.

[1] = system: porcine aortic wall segments; test: Subdermal calcification study in rats, porcine aortic wall; format: in vivo; conditions: Group III: TGA second method, then treated with and stored in formalin-containing solution, 21 days, average ± standard error
Description: as §1, §2, §3

[2] = Thermal shrinkage temperature (Ts) by differential scanning calorimetry; format: physicochemical, porcine; conditions: cusp tissue, 0.1 molar TGA and 0.1 molar HEPES, solution replenished every 24 hours, seven days
Description: (§4) Twenty fresh porcine aortic cusps were added to separate 100 milliliter aliquots of each of the four solutions (i.e. using a total of eighty cusps). The cusps and solutions were maintained with constant shaking at room temperature for up to ten days without changing the solution. At selected times, a small section was removed from each of the cusps in each of the cross-linking reactions and analyzed by differential scanning calorimetry to determine the thermal shrinkage temperature (Ts). Cross-linking reactions were considered complete when the value of Ts remained substantially constant over time. Cusps treated in this manner were maintained in the cross-linking solution for more than 20 days prior to use in subsequent experiments.
as §2, with “After seven days of reaction, one group of each of the tissues was transferred to 100 milliliters of 0.05 molar phosphate buffer containing 4% (v/v) formalin and stored in this solution prior to use in subsequent experiments.” left out

[3] = pH monitoring of cross-linking reactions; format: physicochemical
Description: as §4
as §2, with “After seven days of reaction, one group of each of the tissues was transferred to 100 milliliters of 0.05 molar phosphate buffer containing 4% (v/v) formalin and stored in this solution prior to use in subsequent experiments.” left out

A10 cells = test: Relative biocompatibility of treated collagen surfaces, survival of A10 cells; format: cell-based; conditions: A10 cells on denatured bovine type I collagen film treated with 0.2% (v/v) glutaraldehyde (24 hours, room temperature) or 0.1 molar TGA (24 hours, 37° C.), pH 7.4; about 24 hours of culturing
Description: Denatured (100° C., 1 hour) bovine type I collagen was applied as a film to duplicate culture surfaces. One surface was treated by contacting it with a solution comprising 0.2% (v/v) glutaraldehyde at pH 7.4 for 24 hours at room temperature (i.e. about 20° C.). Another surface was treated by contacting it with a solution comprising 0.1 molar TGA at pH 7.4 for 24 hours at 37° C. Both surfaces were rinsed extensively using phosphate-buffered saline (pH 7.4) in order to remove non-reacted compounds. A10 cells (obtained from the American Type Culture Collection; Gaithersburg, Md.) were provided to both surfaces, and survival of the cells was monitored. A high proportion (estimated at 30% or more of cells) which were provided to the glutaraldehyde-treated collagen surface appeared to be dead following about 24 hours of culturing, with significant amounts of cell debris observed.

[4] = cusps cross-linked with 0.1 molar TGA in borate buffer pH 9.0, first method, subdermal in rats, 21 days

| SMILES | Calcium (micrograms/milligram of dry tissue) (bovine pericardium) | calcium content, average value ± standard error (porcine aortic cusps; D: cusps cross-linked with 0.1 molar TGA in HEPES buffer pH 7.4, first method, subdermal in rats, 21 days) | calcium content of individual tissue samples (porcine aortic cusps; D: cusps cross-linked with 0.1 molar TGA in HEPES buffer pH 7.4, first method, subdermal in rats, 21 days, listed as D) | calcium content of individual tissue samples (porcine aortic cusps; [4]) | calcium content, average value ± standard error (porcine aortic cusps; [4]) | Calcium (micrograms/milligram of dry tissue) (porcine aortic cusps; porcine aortic cusps, Group III: TGA second method, then treated with and stored in formalin-containing solution, subdermal in rats, 21 days, average ± standard error) | post-implantation calcification of the tissue, result in words (porcine aortic cusps; tissues treated by first and second stabilization methods, compared with glutaraldehyde treatment) | Calcium (micrograms/milligram of dry tissue) [1] | thermal shrinkage temperature (Ts) [2] | pH of the stabilization reaction mixture ([3]; first stabilization method, solution not changed, seven-day reaction period) | pH of the stabilization reaction mixture ([3]; second method, reaction mixture solution replaced every 24 hours) | proportion of cells which appeared to be dead (A10 cells) | calcium content, average value ± standard error (porcine aortic cusps; cusps cross-linked with 0.6% (v/v) glutaraldehyde in 0.05 molar HEPES pH 7.4, first method, subdermal in rats, 21 days) | calcium content of individual tissue samples (porcine aortic cusps; cusps cross-linked with 0.6% (v/v) glutaraldehyde in 0.05 molar HEPES pH 7.4, first method, subdermal in rats, 21 days, listed as A) |
| --- | --- | --- | --- | --- | --- | --- | --- | --- | --- | --- | --- | --- | --- | --- |
| C1OC1CN(CC1CO1)CC1CO1 (stereo not drawn) [TGA, triglycidyl amine] | 7.43 ± 3.47 micrograms/milligram of dry ti | 4.13 ± 2.14 micrograms of calcium per milligram of tissue | 1.59 micrograms of calcium per milligram of tissue and 17.58 micrograms of calcium per milligram of tissue and 1.107 micrograms of calcium per milligram of tissue and 1.021 micrograms of calcium per milligram of tissue and 0.615 micrograms of calcium per milligram of tissue and 1.30 micrograms of calcium per milligram of tissue and 8.75 micrograms of calcium per milligram of tissue and 1.14 micrograms of calcium per milligram of tissue | 1.318 micrograms of calcium per milligram of tissue and 0.811 micrograms of calcium per milligram of tissue and 1.31 micrograms of calcium per milligram of tissue and 2.13 micrograms of calcium per milligram of tissue and 1.20 micrograms of calcium per milligram of tissue and 3.85 micrograms of calcium per milligram of tissue | 1.769 micrograms of calcium per milligram of tissue | 18.07 ± 9.19 micrograms/milligram of dry ti | inhibits post-implantation calcification of the tissue relative to glutaraldehyde treatment | 21.17 ± 1.81 micrograms/milligram of dry ti | about 83 °C | ~11.5 | ≤ 8 | substantially undetectable proportion |  |  |
| O=CCCCC=O [glutaraldehyde, reference compound] |  |  |  |  |  |  |  |  |  |  |  | ≥ 30% | 106.69 ± 9.81 micrograms of calcium per milligram of tissue | 63.28 micrograms of calcium per milligram of tissue and 72.44 micrograms of calcium per milligram of tissue and 117.67 micrograms of calcium per milligram of tissue and 131.43 micrograms of calcium per milligram of tissue and 158.70 micrograms of calcium per milligram of tissue and 140.34 micrograms of calcium per milligram of tissue and 141.91 micrograms of calcium per milligram of tissue and 94.44 micrograms of calcium per milligram of tissue and 89.60 micrograms of calcium per milligram of tissue and 87.42 micrograms of calcium per milligram of tissue |
